The values that follow come from ChEMBL document CHEMBL5303304, “EUbOPEN Chemogenomics Library - IncuCyte” (2023).

Structures are written as SMILES.

Holding throughout (assay type): toxicity, cell-based
In one data set the test system is HEK-293T. Put plainly: Incucyte cell viability with HEK293T. As to conditions: human, 10 µM, compound concentration 10 uM.
The next data set has as its system Fibroblast. Put plainly: Incucyte cell viability with human fibroblast. As to conditions: 10 µM, compound concentration 10 uM.
Another data set concerns U2OS. Put plainly: Incucyte cell viability with U2OS. As to conditions: human, 10 µM, compound concentration 10 uM.
Also: unitless GR value; below 1 slowed growth and below 0 cell loss.

Take `COCc1nc2cnc3cc(-c4c(C)noc4C)c(OC[C@H]4CCNC4)cc3c2n1[C@H](C)c1ccccc1` [GSK778]: the “Growth Rate” value is on record as 0.24 with HEK-293T (0 h, replicate number 2); 0.26 in the data set on Fibroblast (6 h, replicate number 1); -0.01 in the data set with Fibroblast (6 h, replicate number 2); 0.63 with Fibroblast (12 h, replicate number 1); 0.65 in the data set on Fibroblast (12 h, replicate number 2); 0.73 with Fibroblast (18 h, replicate number 1). For the same compound, the “Growth Rate” value is 0.98 in the data set on Fibroblast (24 h, replicate number 1); 0.09 in the data set with U2OS (0 h, replicate number 1); -1 in the data set with U2OS (0 h, replicate number 2); 0.78 in the data set with U2OS (6 h, replicate number 1); -0.84 in the data set on U2OS (6 h, replicate number 2); -0.64 in the data set on U2OS (12 h, replicate number 1). For the same compound, the “Growth Rate” value in the data set on U2OS (12 h, replicate number 2) was determined as 0.73; with U2OS (18 h, replicate number 2) it was 0.74; in the data set with U2OS (24 h, replicate number 1), 1; in the data set on U2OS (24 h, replicate number 2), 0.7.
For the compound `Cc1cc2c(-c3ccco3)cnc(N[C@@H]3CCN(C)C[C@H]3C(=O)NC3CCCCC3)c2[nH]c1=O` [GSK789], the “Growth Rate” value in the data set with HEK-293T (0 h, replicate number 1) is on record as 0.12; with Fibroblast (6 h, replicate number 1) it was 0.33; with Fibroblast (6 h, replicate number 2) it was 0; in the data set with U2OS (0 h, replicate number 1), -0.1; in the data set with U2OS (6 h, replicate number 1), 0.92; in the data set on U2OS (6 h, replicate number 2) it was 0.89. Also, the “Growth Rate” value in the data set with U2OS (12 h, replicate number 1) was 1; in the data set with U2OS (24 h, replicate number 2), 1.
For the compound `Cc1cc2c(-c3ccco3)cnc(N[C@H]3CCN(C)C[C@@H]3C(=O)NC3CCCCC3)c2[nH]c1=O` [GSK791], the “Growth Rate” value in the data set on HEK-293T (0 h, replicate number 2) is -0.74; with Fibroblast (6 h, replicate number 1) it was 0.66; with Fibroblast (6 h, replicate number 2), 0.72; in the data set with Fibroblast (12 h, replicate number 1) it was 0.82; in the data set with U2OS (0 h, replicate number 1) it was -0.05; in the data set with U2OS (12 h, replicate number 1) it was -0.81.
Regarding `CCc1ccc(N(CC(C)C)S(=O)(=O)c2ccc(OCC3CCOCC3)c(CO)c2)cc1` [GSK2981278], the “Growth Rate” value with HEK-293T (0 h, replicate number 1) is listed as -0.35; with HEK-293T (6 h, replicate number 1), 0.86; in the data set with HEK-293T (12 h, replicate number 1), 0.83; in the data set with HEK-293T (12 h, replicate number 2) it was 0.5; with HEK-293T (18 h, replicate number 1) it was 0.81; with HEK-293T (18 h, replicate number 2) it was 0.48. Moreover, the “Growth Rate” value in the data set with HEK-293T (24 h, replicate number 1) is 0.82; in the data set with HEK-293T (24 h, replicate number 2) it was 0.53; with Fibroblast (0 h, replicate number 2) it was 0.86; in the data set on Fibroblast (18 h, replicate number 2) it was 0.7; in the data set on Fibroblast (24 h, replicate number 1) it was 0.91; in the data set on Fibroblast (24 h, replicate number 2), 0.85. Moreover, the “Growth Rate” value in the data set with U2OS (0 h, replicate number 1) was determined as 0.11; with U2OS (0 h, replicate number 2), 0.13; in the data set on U2OS (6 h, replicate number 1), 0.9; in the data set on U2OS (6 h, replicate number 2), 0.96; in the data set with U2OS (18 h, replicate number 1), 0.98.
With `CC(C)(C)OC(=O)CN(Cc1ccc(Cl)cc1)Cc1ccc([N+](=O)[O-])s1` [GSK-4112], the “Growth Rate” value in the data set with HEK-293T (0 h, replicate number 1) is on record as 0.04; in the data set on HEK-293T (0 h, replicate number 2) it was 0.51; in the data set with HEK-293T (6 h, replicate number 1) it was 0.86; with HEK-293T (6 h, replicate number 2) it was 0.58; in the data set on HEK-293T (12 h, replicate number 1), 0.78; in the data set on HEK-293T (12 h, replicate number 2), 0.91. The “Growth Rate” value with HEK-293T (18 h, replicate number 1) is 0.76; in the data set with HEK-293T (18 h, replicate number 2), 0.75; in the data set with HEK-293T (24 h, replicate number 2) it was 0.92; in the data set on Fibroblast (6 h, replicate number 1), 0.7; in the data set with Fibroblast (6 h, replicate number 2), -0.08; with Fibroblast (12 h, replicate number 1) it was 0.71. Besides, the “Growth Rate” value is on record as 0.06 in the data set on Fibroblast (12 h, replicate number 2); 0.74 in the data set on Fibroblast (18 h, replicate number 1); 0.06 in the data set on Fibroblast (18 h, replicate number 2); 0.72 in the data set with Fibroblast (24 h, replicate number 1); 0.19 with Fibroblast (24 h, replicate number 2); 0.82 with U2OS (12 h, replicate number 1). Moreover, the “Growth Rate” value is listed as 0.94 with U2OS (18 h, replicate number 1) and 0.95 in the data set on U2OS (24 h, replicate number 1).
As for `CCCCCCCN(CCc1ccc(SC(C)(C)C(=O)O)cc1)C(=O)Nc1ccc(F)cc1F` [GSK-9578], the “Growth Rate” value with HEK-293T (0 h, replicate number 1) is recorded as -0.27; in the data set with HEK-293T (0 h, replicate number 2), -0.91; with HEK-293T (6 h, replicate number 2), 0.66; in the data set with HEK-293T (12 h, replicate number 2), 0.73; in the data set on HEK-293T (18 h, replicate number 2), 0.5; with HEK-293T (24 h, replicate number 2) it was 0.55. The “Growth Rate” value was 0.58 in the data set on Fibroblast (0 h, replicate number 1); 0.88 in the data set on Fibroblast (6 h, replicate number 1); 0.55 in the data set with Fibroblast (6 h, replicate number 2); 0.69 in the data set on Fibroblast (12 h, replicate number 1); 0.91 in the data set on Fibroblast (12 h, replicate number 2); 0.7 with Fibroblast (18 h, replicate number 1). For the same compound, the “Growth Rate” value in the data set with Fibroblast (24 h, replicate number 1) came out at 0.88; in the data set on U2OS (6 h, replicate number 1), 0; in the data set on U2OS (12 h, replicate number 1), 0.86.
As to `C[C@@H](Oc1cc(-n2cnc3ccc(OC4CCN(C)CC4)cc32)sc1C(N)=O)c1ccccc1Cl` [GSK-579289A], the “Growth Rate” value in the data set on HEK-293T (0 h, replicate number 2) is reported as 0.69; with HEK-293T (6 h, replicate number 1) it was 0.7; in the data set with HEK-293T (6 h, replicate number 2) it was 0.94; in the data set on HEK-293T (12 h, replicate number 1), 0.7; in the data set on HEK-293T (12 h, replicate number 2) it was 0.97; in the data set with HEK-293T (18 h, replicate number 1), 0.82. The “Growth Rate” value in the data set with HEK-293T (18 h, replicate number 2) amounted to 1; in the data set with HEK-293T (24 h, replicate number 1), 0.93; in the data set on HEK-293T (24 h, replicate number 2), 0.99; in the data set on Fibroblast (6 h, replicate number 1), 0.99; in the data set with Fibroblast (6 h, replicate number 2) it was 1; with Fibroblast (12 h, replicate number 1) it was 0.94. Moreover, the “Growth Rate” value in the data set on Fibroblast (18 h, replicate number 1) came out at 0.83; with Fibroblast (18 h, replicate number 2), 0.97; with U2OS (0 h, replicate number 2), 0.48; in the data set on U2OS (12 h, replicate number 1), 0.83; with U2OS (12 h, replicate number 2), 0.84; with U2OS (18 h, replicate number 1), 0.65. The “Growth Rate” value in the data set with U2OS (24 h, replicate number 1) was found to be 0.93; with U2OS (24 h, replicate number 2) it was 0.79.
In the case of `O=C(O)c1ccc(-c2c[nH]c3ncc(-c4ccccc4)cc23)cc1C1CCCC1` [GSK-650394], the “Growth Rate” value in the data set on HEK-293T (0 h, replicate number 1) is reported as 0.23; with HEK-293T (0 h, replicate number 2) it was 0.55; in the data set with Fibroblast (0 h, replicate number 2), -0.45; with Fibroblast (6 h, replicate number 1), 0.36; in the data set with Fibroblast (6 h, replicate number 2), -0.95; in the data set with Fibroblast (12 h, replicate number 1) it was -1. Besides, the “Growth Rate” value with Fibroblast (12 h, replicate number 2) is recorded as 0.77; in the data set with Fibroblast (18 h, replicate number 1), 0.91; in the data set with Fibroblast (24 h, replicate number 1), 0.38; in the data set with U2OS (0 h, replicate number 1), 0.01; in the data set with U2OS (6 h, replicate number 1), 0.39; in the data set with U2OS (12 h, replicate number 1), 0.79. Further, the “Growth Rate” value in the data set on U2OS (12 h, replicate number 2) is recorded as 0.98; in the data set with U2OS (18 h, replicate number 1) it was 0.86; in the data set with U2OS (18 h, replicate number 2), 0.92; in the data set on U2OS (24 h, replicate number 2), 0.96.
As for `CN(C)c1cc2c(Nc3ccc4c(cnn4Cc4ccccc4)c3)ncnc2cn1` [GW282974X], the “Growth Rate” value in the data set on HEK-293T (0 h, replicate number 1) was -1; in the data set on HEK-293T (0 h, replicate number 2), -0.53; in the data set on HEK-293T (12 h, replicate number 2), 0.95; in the data set on HEK-293T (18 h, replicate number 1), 0.8; with HEK-293T (18 h, replicate number 2), 0.77; in the data set with HEK-293T (24 h, replicate number 1), 0.59. The “Growth Rate” value in the data set on HEK-293T (24 h, replicate number 2) was 0.61; with Fibroblast (0 h, replicate number 1), -1; in the data set on Fibroblast (18 h, replicate number 2), 0.86; in the data set with Fibroblast (24 h, replicate number 1) it was 0.77; in the data set on Fibroblast (24 h, replicate number 2) it was 0.69; in the data set with U2OS (0 h, replicate number 1) it was -0.05. Also, the “Growth Rate” value with U2OS (6 h, replicate number 2) amounted to 0.77; in the data set with U2OS (12 h, replicate number 1) it was 0.77; with U2OS (12 h, replicate number 2), 0.87; in the data set with U2OS (18 h, replicate number 1) it was 0.83; in the data set with U2OS (18 h, replicate number 2), 0.91; in the data set with U2OS (24 h, replicate number 2) it was 0.65.
